According to PubChem BioAssay (NCI):
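Compound exposure: 48 hours, 5 concentrations, 96-well plates. TGI denotes the concentration required for complete inhibition of growth.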

Experiments:
Test in all cases: DTP human tumour cell line panel, 48 h
A549 NSCLC = system: A549 NSCLC
BT-549 breast = system: BT-549 breast
DU-145 prostate = system: DU-145 prostate
HOP-92 NSCLC = system: HOP-92 NSCLC
MDA-MB-435 = system: MDA-MB-435
NCI-H460 lung = system: NCI-H460 lung
OVCAR-3 ovarian = system: OVCAR-3 ovarian
OVCAR-5 ovarian = system: OVCAR-5 ovarian
SK-MEL-28 melanoma = system: SK-MEL-28 melanoma
SK-OV-3 ovarian = system: SK-OV-3 ovarian
TK-10 renal = system: TK-10 renal
UO-31 renal = system: UO-31 renal
CAKI-1 renal = system: CAKI-1 renal
NCI-H522 lung = system: NCI-H522 lung
SK-MEL-2 melanoma = system: SK-MEL-2 melanoma

Row | Structure (SMILES) | TGI (A549 NSCLC) [µM] | TGI (BT-549 breast) [µM] | TGI (DU-145 prostate) [µM] | TGI (HOP-92 NSCLC) [µM] | TGI (MDA-MB-435) [µM] | TGI (NCI-H460 lung) [µM] | TGI (OVCAR-3 ovarian) [µM] | TGI (OVCAR-5 ovarian) [µM] | TGI (SK-MEL-28 melanoma) [µM] | TGI (SK-OV-3 ovarian) [µM] | TGI (TK-10 renal) [µM] | TGI (UO-31 renal) [µM] | TGI (CAKI-1 renal) [µM] | TGI (NCI-H522 lung) [µM] | TGI (SK-MEL-2 melanoma) [µM]
1 | c1ccc2c(c1)ccc1nc3ccccn3c12 | > 100 | > 100 | > 100 | > 100 | > 100 | > 100 | > 100 | > 100 | > 100 | > 100 | > 100 | > 100 |  |  | 
2 | CC1=C(S(=O)c2ccc(C)cc2)CCC2(CCCCO2)O1 (centres undefined) |  | > 100 | > 100 |  | > 100 | > 100 | > 100 | > 100 | > 100 |  | > 100 | > 100 | > 100 | > 100 | > 100
3 | Cc1no[n+]([O-])c1/C=N/NS(=O)(=O)c1ccccc1 | > 100 |  |  | > 100 |  |  | > 100 | > 100 | > 100 | > 100 | > 100 | > 100 | > 100 | > 100 | > 100
4 | O=C1C=Cc2c1csc2Br | > 100 | > 100 | > 100 |  | > 100 | > 100 | > 100 | > 100 | > 100 | > 100 | > 100 | 72.5 | > 100 | 38.4 | > 100
5 | Cc1ccc(S(=O)(=O)C(C#N)c2nc3ccccc3nc2N2CCOCC2)cc1 (centres undefined) | > 100 |  |  |  |  | 39.7 | 91.6 | > 100 | 51.9 | > 100 | > 100 | > 100 | 65 | 37.3 | 88.6
6 | C=C(C)C1Cc2c(cc(OC)c3c(=O)c4ccccc4n(C)c23)O1 (centres undefined) | > 100 |  |  | > 100 |  | > 100 | > 100 | > 100 | > 100 | > 100 | > 100 | > 100 | > 100 | 34.3 | > 100
7 | COc1ccccc1NC(=O)CC(=O)n1nc(-c2ccccc2)c(N=Nc2ccccc2[N+](=O)[O-])c1-c1ccccc1 | > 100 |  |  | > 100 |  | > 100 | > 100 | > 100 | > 100 | > 100 | > 100 | > 100 | > 100 | > 100 | > 100
8 | O=C1CCCC(=O)N1n1c(Cc2ccc(Cl)cc2)n[nH]c1=O | > 100 | > 100 | > 100 |  | > 100 | > 100 | > 100 | > 100 | > 100 | > 100 | > 100 | > 100 | > 100 | > 100 | > 100
9 | O=C1CC(NCCCNC2CC(=O)c3c(Br)sc(Br)c32)c2c(Br)sc(Br)c21 (centres undefined) | > 100 | 4.23 | 3.64 |  | 4.28 | > 100 |  | 4.85 | > 24.3 | 14.9 | 4.61 |  | 3.77 |  | 5.01
10 | Cc1ccc(C)c(NC(=O)/C(=N\N)C(c2cnc3ccc([N+](=O)[O-])cc3n2)[N+](=O)[O-])c1 (centres undefined) | > 100 | > 100 |  | > 100 | > 100 | > 100 | > 100 | > 100 | > 100 | > 100 | > 100 | > 100 | > 100 | > 100 | > 100
11 | COc1ccc(N2C(=O)C(C#N)=C(SC)C(C#N)C2=O)cc1 (centres undefined) | > 100 | > 100 |  | > 100 | > 100 | > 100 |  | > 100 |  | > 100 | > 100 |  | > 100 | > 100 | > 100
12 | CC(=O)[C@H]1[C@@H](OCc2ccccc2)O[N+]([O-])=C(C)[C@@H]1c1ccccc1 | > 100 |  | > 100 | 62.4 | > 100 | > 100 | 57.7 | > 100 | 98.4 | > 100 | > 100 | 40.2 | 52 | 26.4 | > 100
13 | COC(=N)c1ncn(Cc2ccccc2)c1N | > 100 |  | > 100 | > 100 | > 100 | > 100 | > 100 | > 100 | > 100 | > 100 | > 100 |  | > 100 | > 100 | > 100
14 | CN(C)C=NCc1ccc2c(c1)OCO2 | > 100 |  | > 100 | > 100 | > 100 | > 100 | > 100 | > 100 | > 100 | > 100 | > 100 | > 100 | > 100 | > 100 | > 100
15 | O=S(=O)(c1ccccc1)n1cnc(CCc2ccccc2)n1 | > 100 |  |  | > 100 |  | > 100 | > 100 | > 100 | > 100 | > 100 | > 100 | > 100 | > 100 | > 100 | > 100
16 | O=C(/C=C/c1cc(F)ccc1F)OCCc1ccccc1 | > 100 | > 100 |  | > 100 | > 100 |  |  | > 100 | > 100 |  | > 100 | > 100 | > 100 | > 100 | > 100
17 | CC(=O)OCC1=C2C(OC(=O)C(C)C)CC3(COC(C)=O)OC3/C=C\C3(C)OC3C2OC1=O (centres undefined) | > 100 | > 100 | > 100 |  | > 100 | > 100 | > 100 | > 100 | > 100 | > 100 | > 100 | > 100 | > 100 |  | > 100
18 | COc1ccc2[nH]c3c(C)c4ccnc(NCCCN(C)CCCN)c4c(C)c3c2c1 |  | 3.61 | 0.652 |  | 0.401 | 0.213 | 1.54 | 0.725 | 1.61 | 2.47 | 1.35 | 3.23 | 0.551 | 0.137 | 0.809
